{"source": "patent US20080113101A1", "about": "“ORGANIC-ELECTROLUMINESCENCE-MATERIAL-CONTAINING SOLUTION, METHOD FOR FORMING THIN FILM OF ORGANIC ELECTROLUMINESCENCE MATERIAL, THIN FILM OF ORGANIC ELECTROLUMINESCENCE MATERIAL AND ORGANIC ELECTROLUMINESCENCE DEVICE” (Idemitsu Kosan Co., Ltd., priority 2006, published 2008)", "assay_type_in_all_cases": "physicochemical", "key": {"[1]": {"assay": "Ink solution condition after a week (pot life)", "details": "H10: ink of Example 28 with Compound H10 instead of H4", "description": "(§1) Specifically, samples of a host compound and a dopant compound were blended in a weight ratio of 20:1 in a sample pot, to which a solvent and a viscosity control agent were added.\n(§2) Table 5 and Table 6 each show a type of solvent, solid content (wt %), solubility (o: no insoluble matter visually observed, x: insoluble matter visually observed), viscosity and a solution condition after a week."}, "[2]": {"assay": "Solubility Evaluation 1: solubility of host compounds in toluene", "details": "host compounds", "description": "Solubility Evaluation 1 was conducted by the following method.\nA hundred mg of each compound was placed in a sample pot and the toluene as the solvent was added until the compound was dissolved. The solubility in the toluene was obtained from an amount of the added toluene."}, "[3]": {"assay": "Ink solubility, insoluble matter visually observed", "details": "H10: ink of Example 28 with Compound H10 instead of H4", "description": "as §1, §2"}}, "data": [{"smiles": "c1ccc(-c2ccccc2-c2ccc3c(-c4ccccc4)c4ccccc4c(-c4ccccc4)c3c2)cc1", "note": "[Compound H10]", "values": [{"measurement": "precipitation within a week / pot life (in words)", "setting": "[1]", "result": "precipitation was not observed after a week"}, {"measurement": "solubility in toluene", "setting": "[2]", "result": 5, "unit": "wt %"}, {"measurement": "insoluble matter in the ink (in words)", "setting": "[3]", "result": "no solid matters left undissolved"}]}]}
